Data: paper PMC5515971, “Utility of spherical human liver microtissues for prediction of clinical drug-induced liver injury” (Archives of Toxicology, 2017)
Read-outs that look alike come from different tables or passages of the source.

How the values were obtained:
[1] = tested on: 3D human liver microtissues (hLiMT); experiment: Cytotoxicity (cellular ATP, CellTiter-Glo 2.0) in 3D human liver microtissues, 14 day repeat-dose treatment; settings: for IC50: Homo sapiens, 336 h
[2] = tested on: 3D human liver microtissues (hLiMT); experiment: alpha-GST release into hLiMT supernatant (ELISA); assay type: cell-based; settings: 336 h, 14 days, release into medium, read-out: IC50 (α-GST assay)
[3] = tested on: 3D human liver microtissues (hLiMT); experiment: Cytotoxicity (cellular ATP) in 3D human liver microtissues, 5-6 days treatment; assay type: cell-based; settings: Homo sapiens; hLiMT, 5/6 days, ATP content; read-out: IC50 SHORT;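 also: Hanging-drop spheroids, seven-point dilution series, re-dosed on day 3, CellTiter-Glo 2.0 luminescence, normalized to 0.5 or 1% DMSO vehicle controls on the same plate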
[4] = tested on: primary human hepatocytes (PHH); experiment: Cytotoxicity (cellular ATP, CellTiter-Glo) in 2D plated primary human hepatocytes, 48 h treatment; assay type: cell-based; settings: for IC50: Hepatocyte, 2D primary human hepatocytes (lot IZT), 48 h treatment, total cellular ATP content, read-out: Geomean IC50;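 as to all read-outs here: 384-well plates, luminescence read-out, normalized to vehicle wells with 1% DMSO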
[5] = cited from earlier work
[6] = ref Chen et al 2016 / Chen et al 2011; cited from earlier work
[7] = cited from earlier work; for DILI category: clinical, from literature and product labels; for P/N (DILI positive / DILI negative): P = DILI severity categories 1, 2 and 3, N = categories 4 and 5
[8] = Clinical DILI severity categorization and DILI pattern; settings: P = DILI severity categories 1, 2 and 3; N = categories 4 and 5
[9] = Hepatocyte, read-out: Geomean IC50 [µM]
[10] = human Cmax total, used for IC50/Cmax
[11] = human total plasma Cmax, ref literature values
[12] = Table 1, ref Garside et al. (2014)
[13] = clinical DILI severity category, 1-5
[14] = table S-4, ref Garside et al. 2014
[15] = table S-5, ref Garside et al. 2014

Structure (SMILES)	IC50 [1, 9]	IC50 [4]	Cmax [5, 10]	Cmax [5, 11]	FDA DILI Classification DILI severity score [6]	LTKB DILI classification [6]	DILI severity category [7, 12]	DILI severity category [7, 13]	DILI category ([7]; ref Garside et al. 2014)	P/N (DILI positive / DILI negative) [7]	P/N (DILI positive / DILI negative) [8]	other results
CC(=O)Nc1ccc(O)cc1 [Acetaminophen]	~573 µM	4600 µM	165 µM	165 µM								IC50 ([1]; read-out: IC50 (ATP-assay)): 732 µM; IC50 ([1]; read-out: IC50 LONG): 573 µM; IC50 [2]: 3260 µM; IC50 [3]: 911 µM
C1CCC(C(CC2CCCCN2)C2CCCCC2)CC1 (stereo not shown) [Perhexiline]	~2.6 µM	11.2 µM			8	most DILI concern	1: Severe clinical DILI (N = 23)	1. Severe Clinical DILI	1. Severe Clinical DILI			IC50 ([1]; read-out: IC50 (ATP-assay)): 2.01 µM; IC50 ([1]; read-out: IC50 LONG): 2.5 µM; DILI severity category [7, 14]: 1; DILI severity category [7, 15]: 1. Severe Clinical DILI; IC50 [2]: 6.26 µM; IC50 [3]: 4.2 µM
Cc1ccc(C(=O)c2cc(O)c(O)c([N+](=O)[O-])c2)cc1 [Tolcapone]	~19 µM	158 µM	47.6 µM	47.6 µM	8	most DILI concern	1: Severe clinical DILI (N = 23)	1. Severe Clinical DILI	1. Severe Clinical DILI			IC50 ([1]; read-out: IC50 (ATP-assay)): 19.3 µM; IC50 ([1]; read-out: IC50 LONG): 15.5 µM; DILI severity category [7, 14]: 1; DILI severity category [7, 15]: 1. Severe Clinical DILI; IC50 [2]: 62.4 µM; IC50 [3]: 30.1 µM
CC(C)[N+](C)(CCOC(=O)C1c2ccccc2Oc2ccccc21)C(C)C [Propantheline]	> 50 µM	> 50 µM	0.44 µM	0.44 µM	0	no DILI concern	5: No DILI (N = 25)	5. No DILI	5. No DILI	N	N	
CCOC(=O)c1ncn2c1CN(C)C(=O)c1cc(F)ccc1-2 [Flumazenil]	> 250 µM	> 250 µM	1.12 µM	1.12 µM	0	no DILI concern	5: No DILI (N = 25)	5. No DILI	5. No DILI	N	N	
CCCCNc1cc(C(=O)O)cc(S(N)(=O)=O)c1Oc1ccccc1 [Bumetanide]	> 10 µM	> 10 µM	0.0848 µM	0.0848 µM	3	Ambiguous DILI concern	4: Enzyme elevations in clinic (N = 16)	4. Enzyme Elevations in Clinic	4. Enzyme Elevations in Clinic	N	N	
CNC1(C)C2CCC(C2)C1(C)C (stereo not shown) [Mecamylamine]	> 25 µM	> 50 µM		0.14 µM	0	no DILI concern	5: No DILI (N = 25)	5. No DILI	5. No DILI	N	N	
C[C@@H]1C[C@H]2[C@@H]3CCC4=CC(=O)C=C[C@]4(C)[C@@]3(F)[C@@H](O)C[C@]2(C)[C@@]1(O)C(=O)CO [Dexamethasone]	> 100 µM	> 100 µM	0.22 µM	0.22 µM	3	Ambiguous DILI concern	4: Enzyme elevations in clinic (N = 16)	4. Enzyme Elevations in Clinic	4. Enzyme Elevations in Clinic	N	N	DILI severity category [7, 15]: 4. Enzyme Elevations in Clinic
Cc1ccc(Cl)c(Nc2ccccc2C(=O)O)c1Cl [Meclofenamate]	~23.1 µM	292 µM	81.1 µM	81.1 µM	3	Ambiguous DILI concern	4: Enzyme elevations in clinic (N = 16)	4. Enzyme Elevations in Clinic	4. Enzyme Elevations in Clinic	N	N	classification at 10× MOS threshold ([1]; hLiMT 14 days): false positive; classification at 10× MOS threshold ([4]; PHH 48 h): false positive
CC(C)(C)NCC(O)COc1cccc2c1CC(O)C(O)C2 (stereo not shown) [Nadolol]	> 100 µM	> 100 µM	0.81 µM	0.81 µM	3	Ambiguous DILI concern	4: Enzyme elevations in clinic (N = 16)	4. Enzyme Elevations in Clinic	4. Enzyme Elevations in Clinic	N	N	DILI severity category [7, 15]: 4. Enzyme Elevations in Clinic
CN1[C@@H]2CC[C@H]1C[C@@H](OC(c1ccccc1)c1ccccc1)C2 [Benztropine]			0.585 µM	0.59 µM	0	no DILI concern	5: No DILI (N = 25)	5. No DILI	5. No DILI	N	N	classification at 50× MOS threshold ([1]; hLiMT 14 days): false positive; classification at 50× MOS threshold ([4]; PHH 48 h): false positive
[H]/N=C(/N)N[C@H]1[C@H](O)[C@@H](O)[C@H](O[C@@H]2O[C@@H](C)[C@](O)(C=O)[C@H]2O[C@@H]2O[C@@H](CO)[C@H](O)[C@@H](O)[C@@H]2NC)[C@@H](N/C(N)=N\[H])[C@@H]1O [Streptomycin]	> 100 µM	> 100 µM	64.5 µM	64.5 µM		no DILI concern	5: No DILI (N = 25)	5. No DILI	5. No DILI	N	N	P/N ([7]; binary DILI classification, table S-4): N; DILI severity category [7, 14]: 5; IC50 [3]: 100 µM
CCN(CC)C(=O)/C(C#N)=C/c1cc(O)c(O)c([N+](=O)[O-])c1 [Entacapone]	152 µM	100 µM	3.28 µM	3.28 µM	0	less DILI concern	4: Enzyme elevations in clinic (N = 16)	4. Enzyme Elevations in Clinic	4. Enzyme Elevations in Clinic	N	N	
O=C(O)Cc1ccccc1Nc1c(Cl)cccc1Cl [Diclofenac]	~61.4 µM	> 500 µM	10.1 µM	10.1 µM								IC50 ([1]; read-out: IC50 (ATP-assay)): 45.6 µM; IC50 ([1]; read-out: IC50 LONG): 61.4 µM; IC50 [2]: 210 µM; IC50 [3]: 100 µM
C[N+](C)(C)C[C@H](O)CC(=O)[O-] [Levocarnitine]	> 10000 µM	> 10000 µM	85.7 µM	85.7 µM		no DILI concern	5: No DILI (N = 25)	5. No DILI	5. No DILI	N	N	DILI severity category [7, 15]: 5. No DILI
CC(C)(C)NC[C@H](O)COc1ccccc1C1CCCC1 [Penbutolol]	~39 µM	15.7 µM	1.03 µM	1.03 µM		no DILI concern	4: Enzyme elevations in clinic (N = 16)	4. Enzyme Elevations in Clinic	4. Enzyme Elevations in Clinic	N	N	classification at 100 μM IC50 threshold ([1]; hLiMT 14 days): false positives; classification at 100 μM IC50 threshold ([4]; PHH 48 h): false positives
Cc1c(-c2ccccc2)oc2c(C(=O)OCCN3CCCCC3)cccc2c1=O [Flavoxate]	> 10 µM	> 10 µM	1.79 µM	1.79 µM	0	no DILI concern	5: No DILI (N = 25)	5. No DILI	5. No DILI	N	N	
